Source: PMC11053489 (Viruses, 2024)
pEC50: −log10 of the molar value. Like-named read-outs stand apart in the source and are kept apart here.

How the values were obtained:
[1] = rats; cited from earlier work
[2] = dog, in vivo; cited from earlier work
[3] = tested on: SARS-CoV-2 (hCoV-19/USA-WA1/2020) in Caco-2 cells; conditions: Caco-2
[4] = monkey, in vivo, po; cited from earlier work
in vitro [5] = conditions: human
[6] = cited from earlier work
[7] = cynomolgus monkey, in vivo; cited from earlier work
in vitro [8] = conditions: human, Caco-2
[9] = tested on: SARS-CoV-2 (hCoV-19/USA-WA1/2020) in Caco-2 cells; experiment: microbe, parasite or virus in culture; conditions: Severe acute respiratory syndrome coronavirus 2, Caco-2, 72 h; for pEC50: read-out: Caco-2 SARS-CoV-2 EC50; for EC90: read-out: Caco-2 SARS-CoV-2 EC90
[10] = human, in vivo
in vitro [11] = conditions: African green monkey
in vitro [12] = conditions: human; remark: listed apart in the source
[13] = remdesivir following IV infusion; cited from earlier work
in vitro [14] = conditions: human; remark: listed apart in the source
[15] = tested on: SARS-CoV-2 (hCoV-19/USA-WA1/2020) in Calu-3 cells; experiment: microbe, parasite or virus in culture; assay type: cell-based; conditions: for pEC50: read-out: Calu-3 SARS-CoV-2 EC50; for EC90: read-out: Calu-3 SARS-CoV-2 EC90
[16] = tested on: SARS-CoV-2 (hCoV-19/USA-WA1/2020) in Vero CCL-81 cells; experiment: microbe, parasite or virus in culture; assay type: cell-based; conditions: for anti-SARS-CoV-2 activity (in words), concentrations up to 100 μM: Vero CCL-81 cells
in vitro [17] = conditions: human; remark: listed apart in the source
[18] = 20 mg/kg, once (dog or cat); Cmax × Fun
Vero CCL-81 cells [19] = tested on: Vero CCL-81 cells
[20] = 10 mg/kg (in cats); cited from earlier work
[21] = mice and rats; cited from earlier work
Vero CCL-81 cells [22] = experiment: MTS cytotoxicity assay, Vero CCL-81 cells; conditions: up to 100 μM
[23] = cited from earlier work; remark: listed apart in the source
SARS-CoV-2 in Vero cells = conditions: read-out: EC50, virus replication in Vero cells; cited from earlier work
CCRF-CEM cells = conditions: human
[24] = tested on: SARS-CoV-2 in Vero E6 cells; conditions: read-out: EC50, SARS-CoV-2 infectivity in Vero E6 cells; cited from earlier work
Vero E6 cells = conditions: read-out: CC50 in Vero E6 cells; cited from earlier work
[25] = tested on: COVID-19 / SARS-CoV-2 infection; conditions: COVID-OUT, cited from earlier work
[26] = in vivo; cited from earlier work
[27] = Severe acute respiratory syndrome coronavirus 2, Calu-3, MOI 0.01, 72 h, 2% FBS
[28] = Severe acute respiratory syndrome coronavirus 2, Calu-3, 72 h

C=CCc1ccc(O)c(-c2cc(CC=C)ccc2O)c1 [Magnolol]
oral bioavailability [1]: 4%

N#C[C@@]1(c2ccc3c(N)ncnn23)O[C@H](CO)[C@@H](O)[C@H]1O [GS-441524]
oral bioavailability [2]: ~89% | Caco-2 Unbound Cmax/EC50 [3]: 30 | oral bioavailability [4]: < 10% | CC50 at 4 days (in vitro [5]): > 100 µM | Fun (unbound fraction of drug in plasma) ([6]; plasma): 0.79 | oral bioavailability [7]: about 3% | CC50 at 3 days (in vitro [8]): > 100 µM | pEC50 [9]: 7.10 | EC90 [9]: 1.4 µM | Cmax (μM) {unbound} [10]: 2.41 µM | CC50 at 3 days (in vitro [11]): > 100 µM | CC50 at 3 days (in vitro [12]): > 100 µM | plasma t1/2 [13]: 6 to 7 h | CC50 at 5 days (in vitro [14]): > 100 µM | pEC50 [15, 27]: 6.52 | EC90 [15, 27]: 2.34 µM | pEC50 ([16]; Severe acute respiratory syndrome coronavirus 2, Table 1 drugs, MOI 0.1, 48 h, 2% FBS, read-out: Vero CCL-81 SARS-CoV-2 EC50): 6.10 | EC90 ([16]; Severe acute respiratory syndrome coronavirus 2, Table 1 drugs, MOI 0.1, 48 h, 2% FBS, read-out: Vero CCL-81 SARS-CoV-2 EC90): 1.4 µM | CC50 at 4 days (in vitro [17]): > 100 µM

Cc1cc(C2=NO[C@@](c3cc(Cl)c(Cl)c(Cl)c3)(C(F)(F)F)C2)sc1C(=O)NCC(=O)NCC(F)(F)F [Lotilaner]
Cmax (μM) {unbound} [18]: 0.007 µM | CC50 (in vitro [11]): 44.3 µM | pEC50 ([16]; Severe acute respiratory syndrome coronavirus 2, 48 h, read-out: Vero CCL-81 Cells EC50): 5.72 | EC90 ([16]; Severe acute respiratory syndrome coronavirus 2, 48 h, read-out: Vero CCL-81 Cells EC90): 4.9 µM

CC(C)C[C@H](NC(=O)OCc1ccccc1)C(=O)N[C@@H](CC1CCNC1=O)C(O)S(=O)(=O)O (stereo partly drawn) [GC376]
CC50 (Vero CCL-81 cells [19]): > 100 µM | Cmax [20]: 1.7 µM | pEC50 ([16]; read-out: Vero CCL-81 Cells EC50): 6.70 | EC90 ([16]; read-out: Vero CCL-81 Cells EC90): 0.6 µM

c1coc(CNc2ncnc3[nH]cnc23)c1 [kinetin, N^6-furfurylaminopurine]
oral bioavailability [21]: 50% | cytotoxicity (in words), up to 100 μM (Vero CCL-81 cells [22]): not cytotoxic | bound to plasma proteins [23]: ~ 80% | antiviral activity in Vero CCL-81 cells (in words) ([16]; NAs and nucleoside-base precursors, evaluated up to 20 μM): lack of antiviral activity | anti-SARS-CoV-2 activity (in words), concentrations up to 100 μM [16]: did not inhibit SARS-CoV-2

CC(C)(Oc1ccc(C(=O)c2ccc(Cl)cc2)cc1)C(=O)O [fenofibric acid]
pEC50 (SARS-CoV-2 in Vero cells): 5.15

C=CCc1ccc(O)c(-c2ccc(O)c(CC=C)c2)c1 [Honokiol]
CEM CC50 {Unbound} (CCRF-CEM cells): 28.6 {26.8} μM | CC50 (in vitro [5]; CEM CC50, 4 days): 28.6 µM | CC50 (in vitro [5]; CEM CC50 {Unbound}): 26.7 µM | Fun (unbound fraction of drug in plasma) ([6]; Table 1, ref column Refs of Table 1): 0.36 | CC50 (in vitro [8]): 18.4 µM | pEC50 [9]: 5.02 | EC90 [9]: 80.4 µM | pEC50 [24]: 4.89 | CC50 (in vitro [11]): 40.4 µM | CC50 (Vero E6 cells): 54 µM | pEC50 [15, 28]: 4.16 | EC90 [15, 28]: 94 µM | pEC50 ([16]; Severe acute respiratory syndrome coronavirus 2, 48 h, read-out: Vero CCL-81 SARS-CoV-2 EC50): 4.70 | EC90 ([16]; Severe acute respiratory syndrome coronavirus 2, 48 h, read-out: Vero CCL-81 SARS-CoV-2 EC90): 84 µM

CN(C)C(=N)N=C(N)N [metformin]
cytotoxicity (in words), up to 100 μM (Vero CCL-81 cells [19]; African green monkey): did not observe an EC50 or cytotoxicity | absolute reduction in long COVID incidence compared with placebo [25]: 4.1% | reduction of the incidence of long COVID ([25]; outpatient treatment): about 41% | plasma Cmax (bound + unbound) [26]: 10.2 µM | anti-SARS-CoV-2 activity (in words), concentrations up to 100 μM [16]: inactive | anti-SARS-CoV-2 activity (in words), concentrations up to 100 μM ([16]; listed as Metformin): did not observe an EC50
